These are literature values, as cited in patent publication US8986418B1, “Method and system for agricultural fertigation” (priority 2008, dated 2015).

Where two headings read alike, the source gives them in different places.

In the case of `[Fe+2]` [Fe^+2], the “Solubility with anion CO3^−2” value is listed as “VSS (VSS means very slightly soluble (20-2,000 ppm))”, the “Solubility with anion Cl” value is reported as “S (S means soluble (over 5,000 ppm))”, the “Solubility with anion HCO3^−” value is reported as “SS (SS means slightly soluble (2,000 to 5,000 ppm))” and the “Solubility with anion NO3^−” value is “S (S means soluble (over 5,000 ppm))”. Moreover, the “Solubility with anion OH^−” value was “VSS (VSS means very slightly soluble (20-2,000 ppm))”, the “Solubility with anion PO4^−3” value is recorded as “I (I means insoluble (<20 ppm))”, the “Solubility with anion SO4^−2” value is given as “S (S means soluble (over 5,000 ppm))” and the “Solubility with anion S^−2” value is on record as “I (I means insoluble (<20 ppm))”. Further, where the note is “listed as Fe^+3”, the “Solubility with anion CO3^−2” value is “I (I means insoluble (<20 ppm))”, the “Solubility with anion HCO3^−” value is “I (I means insoluble (<20 ppm))” and the “Solubility with anion OH^−” value is “I (I means insoluble (<20 ppm))”.
Consider `[H+]` [H^+], for which the “Solubility with anion CO3^−2” value is “CO2”, the “Solubility with anion Cl” value was “S (S means soluble (over 5,000 ppm))”, the “Solubility with anion HCO3^−” value is on record as “S (S means soluble (over 5,000 ppm))” and the “Solubility with anion NO3^−” value is listed as “S (S means soluble (over 5,000 ppm))”. Besides, the “Solubility with anion PO4^−3” value is on record as “S (S means soluble (over 5,000 ppm))” and the “Solubility with anion SO4^−2” value is listed as “S (S means soluble (over 5,000 ppm))”.
On to `[K+]` [K^+], for which the “Solubility with anion CO3^−2” value was “S (S means soluble (over 5,000 ppm))”, the “Solubility with anion Cl” value is reported as “S (S means soluble (over 5,000 ppm))”, the “Solubility with anion HCO3^−” value is recorded as “S (S means soluble (over 5,000 ppm))” and the “Solubility with anion NO3^−” value is reported as “S (S means soluble (over 5,000 ppm))”. Also, the “Solubility with anion OH^−” value is reported as “S (S means soluble (over 5,000 ppm))”, the “Solubility with anion PO4^−3” value is “S (S means soluble (over 5,000 ppm))”, the “Solubility with anion SO4^−2” value was “S (S means soluble (over 5,000 ppm))” and the “Solubility with anion S^−2” value is given as “S (S means soluble (over 5,000 ppm))”.
As to `[Mg+2]` [Mg^+2], the “Solubility with anion CO3^−2” value is recorded as “VSS (VSS means very slightly soluble (20-2,000 ppm))”, the “Solubility with anion Cl” value is on record as “S (S means soluble (over 5,000 ppm))”, the “Solubility with anion HCO3^−” value was “S (S means soluble (over 5,000 ppm))” and the “Solubility with anion NO3^−” value is “S (S means soluble (over 5,000 ppm))”. The “Solubility with anion OH^−” value was “I (I means insoluble (<20 ppm))”, the “Solubility with anion PO4^−3” value is “I (I means insoluble (<20 ppm))” and the “Solubility with anion SO4^−2” value is recorded as “S (S means soluble (over 5,000 ppm))”.
For the compound `[Mn+2]` [Mn^+2], the “Solubility with anion CO3^−2” value was “I (I means insoluble (<20 ppm))”, the “Solubility with anion Cl” value is “S (S means soluble (over 5,000 ppm))”, the “Solubility with anion NO3^−” value is on record as “S (S means soluble (over 5,000 ppm))” and the “Solubility with anion OH^−” value is recorded as “I (I means insoluble (<20 ppm))”. The “Solubility with anion PO4^−3” value was “I (I means insoluble (<20 ppm))”, the “Solubility with anion SO4^−2” value was “S (S means soluble (over 5,000 ppm))” and the “Solubility with anion S^−2” value is listed as “I (I means insoluble (<20 ppm))”.
